{
  "source": "patent US10464947B2",
  "about": "(Incyte Corporation, priority 2013, dated 2019)",
  "note": "Where a name gives a salt, the structure may show the parent alone.",
  "data": [
    {"tested_on": "KMS.12.BM cells", "assay": "KMS.12.BM Cell Viability Assay (Example B1)", "type": "cell-based, human", "conditions": "Homo sapiens, 72 h, 3 days, Cell Titer-GLO, read-out: KMS cellular IC50", "experimental": "(§1) KMS.12.BM cell line (human myeloma) was purchased from JCRB (Osaka, Japan) and maintained in RPMI with 10% FBS culture medium. To measure the cytotoxic activity of the compounds through ATP quantitation, the KMS.12.BM cells are plated in the RPMI culture medium at 5000 cells/well/per 100 μL into a 96-well polystyrene clear black tissue culture plate (Greiner-bio-one through VWR, NJ), in the presence or absence of a concentration range of test compounds. After 3 days, […] Cell Titer-GLO Luminescent (Promega, Madison, Wis.) cell culture agent is added to each well for 10 min. at room temperature to stabilize the luminescent signal. This determines the number of viable cells in culture based on quantitation of the ATP present, which signals the presence of metabolically active cells.", "units": {"IC50": "nM"}, "values": [
      {"smiles": "Cc1noc(C)c1-c1ccc2nc(C3CCN(S(C)(=O)=O)CC3)n3c2c1OC[C@@H]3c1ccccn1", "note": "[Example 112, (4S)-7-(3,5-dimethylisoxazol-4-yl)-2-[1-(methylsulfonyl)piperidin-4-yl]-4-pyridin-2-yl-4,5-dihydroimidazo[1,5,4-de][1,4]benzoxazine]", "IC50": "< 1000"},
      {"smiles": "Cc1noc(C)c1-c1ccc2[nH]c(=O)n3c2c1CCC3c1ccccc1", "note": "(centres unmarked) [Example 120, 7-(3,5-Dimethylisoxazol-4-yl)-4-phenyl-5,6-dihydro-4H-imidazo[4,5,1-ij]quinolin-2(1H)-one]", "IC50": "< 1000"},
      {"smiles": "COn1c(=O)n2c3c(c(-c4c(C)noc4C)ccc31)CCC2c1ccccn1", "note": "(centres unmarked) [Example 122, 7-(3,5-Dimethylisoxazol-4-yl)-1-methoxy-4-pyridin-2-yl-5,6-dihydro-4H-imidazo[4,5,1-ij]quinolin-2(1H)-one trifluoroacetate]", "IC50": "< 1000"},
      {"smiles": "Cc1noc(C)c1-c1ccc2[nH]c(=O)n3c2c1CCC3c1ccccn1", "note": "(centres unmarked) [Example 123, 7-(3,5-Dimethylisoxazol-4-yl)-4-pyridin-2-yl-5,6-dihydro-4H-imidazo[4,5,1-ij]quinolin-2(1H)-one trifluoroacetate]", "IC50": "< 1000"},
      {"smiles": "CC(=O)NCc1ncccc1C1COc2c(-c3c(C)noc3C)ccc3[nH]c(=O)n1c23", "note": "(centres unmarked) [Example 131, N-({3-[7-(3,5-Dimethylisoxazol-4-yl)-2-oxo-1,2,4,5-tetrahydroimidazo[1,5,4-de][1,4]benzoxazin-4-yl]pyridin-2-yl}methyl)acetamide]", "IC50": "< 1000"},
      {"smiles": "Cc1noc(C)c1-c1cc(CNC(=O)CN(C)C)c2[nH]c(=O)n3c2c1OC[C@@H]3c1ccccn1", "note": "[Example 143, 2-(Dimethylamino)-N-{[(4S)-7-(3,5-dimethylisoxazol-4-yl)-2-oxo-4-pyridin-2-yl-1,2,4,5-tetrahydroimidazo[1,5,4-de][1,4]benzoxazin-9-yl]methyl}acetamide]", "IC50": "< 1000"},
      {"smiles": "Cc1noc(C)c1-c1ccc2nc(N3CC[C@@H](C(=O)NC(C)C)C3)n3c2c1OC[C@@H]3c1ccccn1", "note": "[Example 145, (3R)-1-[(4S)-7-(3,5-Dimethylisoxazol-4-yl)-4-pyridin-2-yl-4,5-dihydroimidazo[1,5,4-de][1,4]benzoxazin-2-yl]-N-isopropylpyrrolidine-3-carboxamide]", "IC50": "< 1000"},
      {"smiles": "Cc1noc(C)c1-c1ccc2nc(N3CCCN(S(N)(=O)=O)CC3)n3c2c1OC[C@@H]3c1ccccn1", "note": "[Example 147, 4-[(4S)-7-(3,5-Dimethylisoxazol-4-yl)-4-pyridin-2-yl-4,5-dihydroimidazo[1,5,4-de][1,4]benzoxazin-2-yl]-1,4-diazepane-1-sulfonamide]", "IC50": "< 1000"},
      {"smiles": "CC(=O)N1CCCN(c2nc3ccc(-c4c(C)noc4C)c4c3n2[C@@H](c2ccccn2)CO4)CC1", "note": "[Example 148, (4S)-2-(4-Acetyl-1,4-diazepan-1-yl)-7-(3,5-dimethylisoxazol-4-yl)-4-pyridin-2-yl-4,5-dihydroimidazo[1,5,4-de][1,4]benzoxazine]", "IC50": "< 1000"},
      {"smiles": "Cc1noc(C)c1-c1ccc2nc(N3CCCN(S(C)(=O)=O)CC3)n3c2c1OC[C@@H]3c1ccccn1", "note": "[Example 149, (4S)-7-(3,5-Dimethylisoxazol-4-yl)-2-[4-(methylsulfonyl)-1,4-diazepan-1-yl]-4-pyridin-2-yl-4,5-dihydroimidazo[1,5,4-de][1,4]benzoxazine]", "IC50": "< 1000"},
      {"smiles": "Cc1noc(C)c1-c1ccc2nc(N3CCNCC3)n3c2c1OC[C@@H]3c1ccccn1", "note": "[Example 150, (4S)-7-(3,5-Dimethylisoxazol-4-yl)-2-piperazin-1-yl-4-pyridin-2-yl-4,5-dihydroimidazo[1,5,4-de][1,4]benzoxazine trihydrochloride]", "IC50": "< 1000"},
      {"smiles": "Cc1noc(C)c1-c1ccc2nc(N3CCN(CC(=O)N(C)C)CC3)n3c2c1OC[C@@H]3c1ccccn1", "note": "[Example 151, 2-{4-[(4S)-7-(3,5-Dimethylisoxazol-4-yl)-4-pyridin-2-yl-4,5-dihydroimidazo[1,5,4-de][1,4]benzoxazin-2-yl]piperazin-1-yl}-N,N-dimethylacetamide]", "IC50": "< 1000"},
      {"smiles": "Cc1noc(C)c1-c1ccc2nc(N3CC[C@@H](N(C)C(=O)CC#N)C3)n3c2c1OC[C@@H]3c1ccccn1", "note": "[Example 152, 2-Cyano-N-{(3R)-1-[(4S)-7-(3,5-dimethylisoxazol-4-yl)-4-pyridin-2-yl-4,5-dihydroimidazo[1,5,4-de][1,4]benzoxazin-2-yl]pyrrolidin-3-yl}-N-methylacetamide]", "IC50": "< 1000"},
      {"smiles": "Cc1noc(C)c1-c1ccc2nc(N3CC[C@@H](NC(=O)N4CCOCC4)C3)n3c2c1OC[C@@H]3c1ccccn1", "note": "[Example 153, N-{(3R)-1-[(4S)-7-(3,5-Dimethylisoxazol-4-yl)-4-pyridin-2-yl-4,5-dihydroimidazo[1,5,4-de][1,4]benzoxazin-2-yl]pyrrolidin-3-yl}morpholine-4-carboxamide]", "IC50": "< 1000"},
      {"smiles": "Cc1noc(C)c1-c1ccc2nc(C)n3c2c1OC[C@@H]3c1ccccn1", "note": "[Example 154, 7-(3,5-Dimethylisoxazol-4-yl)-2-methyl-4-pyridin-2-yl-4,5-dihydroimidazo[1,5,4-de][1,4]benzoxazine]", "IC50": "< 1000"},
      {"smiles": "COC(=O)N[C@@H]1CCN(c2nc3ccc(-c4c(C)noc4C)c4c3n2[C@@H](c2ccccn2)CO4)C1", "note": "[Example 155, Methyl {(3R)-1-[(4S)-7-(3,5-dimethylisoxazol-4-yl)-4-pyridin-2-yl-4,5-dihydroimidazo[1,5,4-de][1,4]benzoxazin-2-yl]pyrrolidin-3-yl}carbamate]", "IC50": "< 1000"},
      {"smiles": "Cc1noc(C)c1-c1cc(F)c2nc(N(C)C)n3c2c1OCC3c1cccnc1", "note": "(centres unmarked) [Example 156, 7-(3,5-Dimethylisoxazol-4-yl)-9-fluoro-N,N-dimethyl-4-pyridin-3-yl-4,5-dihydroimidazo[1,5,4-de][1,4]benzoxazin-2-amine]", "IC50": "< 1000"},
      {"smiles": "Cc1noc(C)c1-c1cc(F)c2nc(N3CCC(O)C3)n3c2c1OCC3c1cccnc1", "note": "(centres unmarked) [Example 157, 1-[7-(3,5-Dimethylisoxazol-4-yl)-9-fluoro-4-pyridin-3-yl-4,5-dihydroimidazo[1,5,4-de][1,4]benzoxazin-2-yl]pyrrolidin-3-ol]", "IC50": "< 1000"},
      {"smiles": "CCNc1nc2c(F)cc(-c3c(C)noc3C)c3c2n1C(c1cccnc1)CO3", "note": "(centres unmarked) [Example 158, 7-(3,5-Dimethylisoxazol-4-yl)-N-ethyl-9-fluoro-4-pyridin-3-yl-4,5-dihydroimidazo[1,5,4-de][1,4]benzoxazin-2-amine]", "IC50": "< 1000"},
      {"smiles": "Cc1noc(C)c1-c1ccc2nc(N3CCOCC3)n3c2c1OC[C@@H]3c1ccccn1", "note": "[Example 161, (4S)-7-(3,5-dimethylisoxazol-4-yl)-2-morpholin-4-yl-4-pyridin-2-yl-4,5-dihydroimidazo[1,5,4-de][1,4]benzoxazine]", "IC50": "< 1000"},
      {"smiles": "Cc1noc(C)c1-c1ccc2nc(N3CCCC3)n3c2c1OC[C@@H]3c1ccccn1", "note": "[Example 162, (4S)-7-(3,5-dimethylisoxazol-4-yl)-4-pyridin-2-yl-2-pyrrolidin-1-yl-4,5-dihydroimidazo[1,5,4-de][1,4]benzoxazine]", "IC50": "< 1000"},
      {"smiles": "Cc1noc(C)c1-c1ccc2nc(N3CCN(C)CC3)n3c2c1OC[C@@H]3c1ccccn1", "note": "[Example 163, (4S)-7-(3,5-dimethylisoxazol-4-yl)-2-(4-methylpiperazin-1-yl)-4-pyridin-2-yl-4,5-dihydroimidazo[1,5,4-de][1,4]benzoxazine]", "IC50": "< 1000"},
      {"smiles": "Cc1noc(C)c1-c1ccc2nc(N3CCC3)n3c2c1OC[C@@H]3c1ccccn1", "note": "[Example 164, (4S)-2-azetidin-1-yl-7-(3,5-dimethylisoxazol-4-yl)-4-pyridin-2-yl-4,5-dihydroimidazo[1,5,4-de][1,4]benzoxazine]", "IC50": "< 1000"},
      {"smiles": "Cc1noc(C)c1-c1ccc2nc(N3CC(O)C3)n3c2c1OC[C@@H]3c1ccccn1", "note": "[Example 165, 1-[(4S)-7-(3,5-dimethylisoxazol-4-yl)-4-pyridin-2-yl-4,5-dihydroimidazo[1,5,4-de][1,4]benzoxazin-2-yl]azetidin-3-ol]", "IC50": "< 1000"},
      {"smiles": "Cc1noc(C)c1-c1ccc2nc(N3CCN(C)C(=O)C3)n3c2c1OC[C@@H]3c1ccccn1", "note": "[Example 166, 4-[(4S)-7-(3,5-dimethylisoxazol-4-yl)-4-pyridin-2-yl-4,5-dihydroimidazo[1,5,4-de][1,4]benzoxazin-2-yl]-1-methylpiperazin-2-one]", "IC50": "< 1000"},
      {"smiles": "CCOC(=O)N1CCN(c2nc3ccc(-c4c(C)noc4C)c4c3n2[C@@H](c2ccccn2)CO4)CC1", "note": "[Example 167, ethyl 4-[(4S)-7-(3,5-dimethylisoxazol-4-yl)-4-pyridin-2-yl-4,5-dihydroimidazo[1,5,4-de][1,4]benzoxazin-2-yl]piperazine-1-carboxylate]", "IC50": "< 1000"},
      {"smiles": "Cc1noc(C)c1-c1ccc2nc(N3CCC(O)CC3)n3c2c1OC[C@@H]3c1ccccn1", "note": "[Example 169, 1-[(4S)-7-(3,5-dimethylisoxazol-4-yl)-4-pyridin-2-yl-4,5-dihydroimidazo[1,5,4-de][1,4]benzoxazin-2-yl]piperidin-4-ol]", "IC50": "< 1000"},
      {"smiles": "Cc1noc(C)c1-c1ccc2nc(N3CCC[C@@H](O)C3)n3c2c1OC[C@@H]3c1ccccn1", "note": "[Example 170A, (3R)-1-[(4S)-7-(3,5-dimethylisoxazol-4-yl)-4-pyridin-2-yl-4,5-dihydroimidazo[1,5,4-de][1,4]benzoxazin-2-yl]piperidin-3-ol]", "IC50": "< 1000"}
    ]},
    {"tested_on": "KMS.12.BM cells", "assay": "KMS.12.BM Cell Viability Assay (Example B1)", "type": "cell-based, human", "conditions": "Homo sapiens, KMS-12-BM, 72 h, 3 days, Cell Titer-GLO, read-out: KMS cellular IC50", "experimental": "as §1", "units": {"IC50": "nM"}, "values": [
      {"smiles": "Cc1noc(C)c1-c1ccc2[nH]c(=O)n3c2c1OCC3c1cccnc1C(=O)N(C)C", "note": "(centres unmarked) [Example 129, 3-[7-(3,5-Dimethylisoxazol-4-yl)-2-oxo-1,2,4,5-tetrahydroimidazo[1,5,4-de][1,4]benzoxazin-4-yl]-N,N-dimethylpyridine-2-carboxamide]", "IC50": "< 1000"}
    ]}
  ]
}
